Patent US10980814B2, “Fused pentacyclic imidazole derivatives as modulators of TNF activity” (UCB Biopharma SRL, priority 2017, dated 2021)

The compounds below were run against T1, human hERG channels (Kv11.1) (Homo sapiens, UniProt Q12809) (assay: hERG assay, automated planar patch-clamp in CHO cells stably expressing human hERG channels). Conditions: peak tail-current, QPatch HTX whole-cell voltage-clamp, room temperature, 0.12-30 μM.
T1 construct: host or cells: CHO cells (hERG-Duo cells)
Type: cell-based
Procedure: Pharmacological activity of the compounds at cardiac hERG channels (Kv11.1) was assessed functionally using an automated planar patch-clamp electrophysiology station. CHO cells stably expressing human hERG channels were grown under the permanent pressure of the appropriate selection antibiotics according to the specifications of the manufacturer (hERG-Duo cells, B'SYS GmbH, Switzerland). Cells were harvested below 80% confluence, suspended in serum-free medium and dispensed automatically to multi-well recording plates for whole-cell voltage-clamp recordings on a QPatch HTX workstation (Sophion, BiolinScientific AB, Denmark). The composition of the extracellular recording buffer was (in mM): NaCl, 150; KCl, 4; CaCl2), 2; MgCl2, 1; HEPES, 10; and glucose, 10; adjusted to pH 7.4 with NaOH. The intracellular buffer contained (in mM): KCl, 120; CaCl2), 5; MgCl2, 2; EGTA, 10; HEPES, 10; and Mg-ATP, 4; adjusted to pH 7.2 with KOH. The voltage protocol used to activate hERG currents consisted in a first depolarizing step from a −80 mV holding potential to +20 mV for 5 s followed by a second repolarizing step to −50 mV. Cycle time was 15 s, recordings were performed at room temperature and drug effects were evaluated on the peak tail-current elicited by the second repolarizing step. For pharmacology, stock solutions of the test articles at 10 mM were prepared in DMSO. A 6-point concentration-range was prepared in polypropylene micro-titer plates by first serially diluting the initial 10 mM stock 1:3 in DMSO and then diluting each of the 6 intermediate working solutions 1:333 in extracellular recording medium containing 0.06% Pluronic F-68 (Gibco/Thermofischer, France). Final concentrations of test articles (i.e. 0.12 μM, 0.37 μM, 1.1 μM, 3.3 μM, 10 μM and 30 μM) were applied cumulatively to the cells in ascending order. A positive control (terfenadine, 10 μM) was added at the end of each recording sequence. Time-course of hERG tail current amplitude was analyzed off-line following optional leak current substraction and compensation of current rundown as needed. Half-maximal inhibitory concentrations (IC50) were obtained by fitting current amplitudes measured at the end of each exposure period and normalized with respect to pre-drug baseline with a four parameter sigmoidal equation.

T1 sequence (Q12809 whole entry): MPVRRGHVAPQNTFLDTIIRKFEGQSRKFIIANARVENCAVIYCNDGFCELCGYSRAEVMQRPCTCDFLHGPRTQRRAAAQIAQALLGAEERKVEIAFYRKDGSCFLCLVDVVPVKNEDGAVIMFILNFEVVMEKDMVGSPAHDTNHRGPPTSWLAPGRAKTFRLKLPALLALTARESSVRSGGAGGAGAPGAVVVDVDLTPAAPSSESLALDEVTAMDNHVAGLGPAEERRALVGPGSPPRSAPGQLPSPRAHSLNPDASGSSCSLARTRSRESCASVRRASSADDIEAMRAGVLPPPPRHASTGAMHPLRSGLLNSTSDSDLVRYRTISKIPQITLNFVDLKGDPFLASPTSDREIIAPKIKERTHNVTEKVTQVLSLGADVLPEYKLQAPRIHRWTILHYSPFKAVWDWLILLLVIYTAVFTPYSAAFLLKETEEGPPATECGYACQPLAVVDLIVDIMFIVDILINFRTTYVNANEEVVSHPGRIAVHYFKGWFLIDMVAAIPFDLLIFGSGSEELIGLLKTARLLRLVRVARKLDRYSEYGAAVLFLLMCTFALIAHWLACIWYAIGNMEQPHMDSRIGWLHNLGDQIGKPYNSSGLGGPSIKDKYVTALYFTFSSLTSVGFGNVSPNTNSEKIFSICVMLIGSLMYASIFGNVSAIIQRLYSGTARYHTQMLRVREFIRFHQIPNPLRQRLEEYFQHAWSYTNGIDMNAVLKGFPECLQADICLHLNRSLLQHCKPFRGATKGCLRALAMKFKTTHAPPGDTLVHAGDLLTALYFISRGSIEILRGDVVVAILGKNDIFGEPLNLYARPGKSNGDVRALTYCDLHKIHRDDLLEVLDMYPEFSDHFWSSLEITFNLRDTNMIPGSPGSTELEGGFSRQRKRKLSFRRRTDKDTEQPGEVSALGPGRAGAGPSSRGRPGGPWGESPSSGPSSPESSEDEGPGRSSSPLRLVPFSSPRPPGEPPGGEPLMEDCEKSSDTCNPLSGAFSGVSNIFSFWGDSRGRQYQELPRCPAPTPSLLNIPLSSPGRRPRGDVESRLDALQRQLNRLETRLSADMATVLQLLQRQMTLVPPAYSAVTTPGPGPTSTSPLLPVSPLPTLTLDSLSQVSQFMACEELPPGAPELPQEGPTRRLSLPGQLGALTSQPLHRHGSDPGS

Row | SMILES | IC50 [µM]
1 | CN1C(=O)c2cccc(OC(F)F)c2[C@H]2C[C@@H]1c1nc3ccc(-c4cnc(C5(N)CCC5)nc4)cc3n12 [Example 6, (7R,14R)-11-[2-(1-Aminocyclobutyl)pyrimidin-5-yl]-1-(difluoromethoxy)-6-methyl-6,7-dihydro-7,14-methanobenzimidazo[1,2-b][2,5]benzodiazocin-5(14H)-one] | ~8
2 | C[C@]1(CO)C[C@](N)(c2ncc(-c3ccc4nc5n(c4c3)[C@@H]3C[C@H]5NC(=O)c4cccc(OC(F)F)c43)cn2)C1 [Example 15, (7R,14R)-11-{2-[cis-1-Amino-3-(hydroxymethyl)-3-methylcyclobutyl]pyrimidin-5-yl}-1-(difluoromethoxy)-6,7-dihydro-7,14-methanobenzimidazo[1,2-b][2,5]benzodiazocin-5(14H)-one] | > 30
3 | C[C@]1(C#N)C[C@](N)(c2ncc(-c3ccc4nc5n(c4c3)[C@@H]3C[C@H]5NC(=O)c4cccc(OC(F)F)c43)cc2F)C1 [Example 4, cis-3-Amino-3-{5-[(7R,14R)-1-(difluoromethoxy)-5-oxo-5,6,7,14-tetrahydro-7,14-methanobenzimidazo[1,2-b][2,5]benzodiazocin-11-yl]-3-fluoropyridin-2-yl}-1-methyl-cyclobutanecarbonitrile] | > 30
4 | CN1C(=O)c2cccc(OC(F)F)c2[C@H]2C[C@@H]1c1nc3ccc(-c4cnc([C@]5(N)C[C@](O)(C(F)(F)F)C5)c(F)c4)cc3n12 (single isomer, unassigned) [Example 11] | > 30
5 | C[C@]1(CO)C[C@](N)(c2ncc(-c3ccc4nc5n(c4c3)[C@@H]3C[C@H]5NC(=O)c4cccc(OC(F)F)c43)cc2F)C1 [Example 10, (7R,14R)-11-{6-[cis-1-Amino-3-(hydroxymethyl)-3-methylcyclobutyl]-5-fluoropyridin-3-yl}-1-(difluoromethoxy)-6,7-dihydro-7,14-methanobenzimidazo[1,2-b][2,5]-benzodiazocin-5(14H)-one] | > 30
6 | C[C@]1(O)C[C@](N)(c2ncc(-c3ccc4nc5n(c4c3)[C@@H]3C[C@H]5NC(=O)c4cccc(OC(F)F)c43)cc2F)C1 [Example 8, (7R,14R)-11-[6-(cis-1-Amino-3-hydroxy-3-methylcyclobutyl)-5-fluoropyridin-3-yl]-1-(difluoromethoxy)-6,7-dihydro-7,14-methanobenzimidazo[1,2-b][2,5]benzodiazocin-5(14H)-one] | > 30
7 | C[C@@H]1CC[C@@]1(N)c1ncc(-c2ccc3nc4n(c3c2)[C@@H]2C[C@H]4NC(=O)c3cccc(OC(F)F)c32)cc1F (single isomer, unassigned) [Example 5, (7R,14R)-11-{6-[(1 S,2R)-1-Amino-2-methylcyclobutyl]-5-fluoropyridin-3-yl}-1-(difluoromethoxy)-6,7-dihydro-7,14-methanobenzimidazo[1,2-b][2,5]benzodiazocin-5(14M-one or (7R,14R)-11-{6-[(1R,2S)-1-Amino-2-methylcyclobutyl]-5-fluoropyridin-3-yl}-1-(difluoromethoxy)-6,7-dihydro-7,14-methanobenzimidazo[1,2-b][2,5]-benzodiazocin-5(14H)-one] | > 30
8 | C[C@]1(C#N)C[C@](N)(c2ncc(-c3ccc4nc5n(c4c3)[C@@H]3C[C@H]5NC(=O)c4cccc(OC(F)F)c43)cn2)C1 [Example 2, cis-3-Amino-3-{5-[(7R,14R)-1-(difluoromethoxy)-5-oxo-5,6,7,14-tetrahydro-7,14-methanobenzimidazo[1,2-b][2,5]benzodiazocin-11-yl]pyrimidin-2-yl}-1-methyl-cyclobutanecarbonitrile] | > 30
9 | N[C@]1(c2ncc(-c3ccc4nc5n(c4c3)[C@@H]3C[C@H]5NC(=O)c4cccc(OC(F)F)c43)cc2F)C[C@@](O)(C(F)(F)F)C1 [Example 13, (7R,14R)-11-{6-[cis-1-Amino-3-hydroxy-3-(trifluoromethyl)cyclobutyl]-5-fluoropyridin-3-yl}-1-(difluoromethoxy)-6,7-dihydro-7,14-methanobenzimidazo[1,2-b][2,5]-benzodiazocin-5(14H)-one] | > 30
10 | [2H]C([2H])(O)[C@]1(C)C[C@@](N)(c2ncc(-c3ccc4nc5n(c4c3)[C@@H]3C[C@H]5NC(=O)c4cccc(OC(F)F)c43)cc2F)C1 [Example 16, (7R,14R)-11-(6-{cis-1-Amino-3-[hydroxy(dideutero)methyl]-3-methylcyclobutyl}-5-fluoropyridin-3-yl)-1-(difluoromethoxy)-6,7-dihydro-7,14-methanobenzimidazo[1,2-b]-[2,5]benzodiazocin-5(14H)-one] | > 30
11 | CN1C(=O)c2cccc(OC(F)F)c2[C@H]2C[C@@H]1c1nc3ccc(-c4cnc([C@]5(N)C[C@](O)(C(F)(F)F)C5)nc4)cc3n12 (single isomer, unassigned) [Example 12] | > 30
12 | [2H]C([2H])(O)[C@]1(C)C[C@@](N)(c2ncc(-c3ccc4nc5n(c4c3)[C@@H]3C[C@H]5NC(=O)c4cccc(OC(F)F)c43)cn2)C1 [Example 14, (7R,14R)-11-(2-{cis-1-Amino-3-[hydroxy(dideutero)methyl]-3-methylcyclobutyl}-pyrimidin-5-yl)-1-(difluoromethoxy)-6,7-dihydro-7,14-methanobenzimidazo[1,2-b][2,5]-benzodiazocin-5(14H)-one] | > 30
